# Results: patent publication US9062028B2, “Bicyclic nitrogen containing heteroaryl TGR5 receptor modulators” (Bristol-Myers Squibb Company, priority 2011, dated 2015)
# Where a name gives a salt, the structure may show the parent alone.
# Molecular target: T1, recombinant human TGR5 (Homo sapiens, UniProt Q8TDU6)
# T1 construct: expressed in transfected cells
# T1 sequence (Q8TDU6 1-330): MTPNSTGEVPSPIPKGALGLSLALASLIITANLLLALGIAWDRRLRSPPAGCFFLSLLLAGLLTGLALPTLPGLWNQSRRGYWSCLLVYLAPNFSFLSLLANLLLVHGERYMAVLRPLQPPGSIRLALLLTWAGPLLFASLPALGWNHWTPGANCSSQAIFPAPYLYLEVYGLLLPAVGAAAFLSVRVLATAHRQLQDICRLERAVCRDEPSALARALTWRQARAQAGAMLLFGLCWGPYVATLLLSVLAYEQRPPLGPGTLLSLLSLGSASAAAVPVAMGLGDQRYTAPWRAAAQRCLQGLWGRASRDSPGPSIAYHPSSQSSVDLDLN
# Test: cAMP assay (cAMP accumulation, HTRF) in CHOK1 cells stably expressing TGR5
# Assay type: cell-based
# Settings: CHOK1 cells stably expressing human TGR5, 30 minutes at RT, 1% DMSO
# Procedure: The in vitro modulation of recombinant human TGR5 was determined as follows.
# A human TGR5 expression construct of human TGR5 was integrated into the genome of a CHOK1 cell line (Invitrogen). Once a stable CHOK1 cell line was generated, the cells were incubated for 5-10 minutes in culture medium consisting of F-12 (Invitrogen#11765-047) supplemented with 10% fetal bovine serum.
# On the day of the cAMP accumulation assay, cells stably expressing the […] TGR5 construct were centrifuged at 1000 rpm for 5 minutes. The medium was aspirated and the cells were resuspended in 5 mL of assay buffer (phosphate-buffered saline with Ca^2+ and Mg^2+, Invitrogen#14040). The cells were counted using 1:2 dilution and then adjusted to 0.4-0.5×10^6 cells/mL in assay buffer, if necessary. Isobutylmethylxanthine (IBMX, Sigma#I5879) was added via a 1:5000 dilution to make a 0.1 mM final concentration and then 10 μL of the media were transferred to each well of a 384 well poly-D-lysine coated solid white plate (BD #35-6661) pre-dotted with 100 nL of with the desired concentration of compound added from a concentrated stock dissolved in dimethyl sulfoxide (DMSO) to give a final concentration of 1% DMSO in the assay. The plates were covered and incubated for 30 minutes at RT. cAMP accumulation was measured using the CisBio homogeneous time resolved fluorescence (HTRF) assay kit (#62AM2PEC) following the manufacturer's protocol. Briefly, 5 μl each of the cAMP-HTRF fluorescence detection reagents were added to each well, and the samples were incubated for at least one hour at room temperature. Fluorescence was excited at 320 nm and measured at 665 and 620 nm using the Envision instrument (Perkin Elmer), the fluorescence ratio of 665/620 was calculated and converted to nanomolar concentrations of cAMP in each well by interpolation from a cAMP standard curve. The concentration-response curves and EC50 values were calculated with a four parameter logistic curve fit equation utilizing Excel/XLfit software (Microsoft and IDBS). The EC50 value was calculated as the concentration of agonist which increased the cAMP concentration to a value halfway between the baseline and the maximum.
row,Molecule,EC50 [nM]
1,"Cc1cccc(OCCCC(=O)N2CCCc3c(-c4cccc(COC(=O)NC(Cc5c[nH]cn5)C(=O)O)c4)cccc32)c1C (stereo not shown) [Example 283, 2-((3-(1-(4-(2,3-Dimethylphenoxy)butanoyl)-1,2,3,4-tetrahydroquinolin-5-yl)benzyloxy)carbonylamino)-3-(1H-imidazol-4-yl)propanoic acid]",3180
2,"Cc1c(Cl)cccc1OCCCC(=O)N1CCCOc2c(-c3cnn(Cc4c(F)cc(C(=O)NCCS(=O)(=O)O)cc4Cl)c3)cccc21 [Example 703, 2-(3-Chloro-4-((4-(5-(4-(3-chloro-2-methylphenoxy)butanoyl)-2,3,4,5-tetrahydrobenzo[b][1,4]oxazepin-9-yl)-1H-pyrazol-1-yl)methyl)-5-fluorobenzamido)ethanesulfonic acid]",46
3,"Cc1cccc(OCCCC(=O)N2CCCc3c(-c4cccc(COC(=O)N[C@@H](Cc5ccc(OP(=O)(O)O)cc5)C(=O)O)c4)cccc32)c1C [Example 324, (S)-2-((3-(1-(4-(2,3-Dimethylphenoxy)butanoyl)-1,2,3,4-tetrahydroquinolin-5-yl)benzyloxy)carbonylamino)-3-(4-(phosphonooxy)phenyl)propanoic acid]",3390
4,"Cc1cccc(OCCCC(=O)N2CCCc3c(-c4cccc(COC(=O)NC[C@H](NC(=N)N)C(=O)O)c4)cccc32)c1C [Example 168F, (S)-3-((3-(1-(4-(2,3-Dimethylphenoxy)butanoyl)-1,2,3,4-tetrahydroquinolin-5-yl)benzyloxy)carbonylamino)-2-guanidinopropanoic acid]",590
5,"(R)-5-tert-Butyl 1-methyl 2-(4- chloro-3-((4-((1aR,7bS)-3-((2- (3-chloro-2-methylphenoxy) ethoxy)carbonyl)-1a,2,3,7b- tetrahydro-1H-cyclopropa[c] quinolin-7-yl)-1H-pyrazol-1- yl)methyl)benzamido) pentanedioate [Example 669]",1340
6,"Cc1cccc(OCCCC(=O)N2CCCc3c(-c4cccc(COC(=O)NCC[C@H](O)C(=O)O)c4)cccc32)c1C [Example 273, (S)-4-((3-(1-(4-(2,3-Dimethylphenoxy)butanoyl)-1,2,3,4-tetrahydroquinolin-5-yl)benzyloxy)carbonylamino)-2-hydroxybutanoic acid]",646
7,"Cc1c(Cl)cccc1OCCCC(=O)N1CCCc2c(-c3cnn(Cc4cccc(NC(=O)N[C@H](CCC(=O)O)C(=O)O)c4)c3)cccc21 [Example 534, (R)-2-(3-(3-((4-(1-(4-(3-Chloro-2-methylphenoxy)butanoyl)-1,2,3,4-tetra-hydroquinolin-5-yl)-1H-pyrazol-1-yl)methyl)phenyl)ureido) pentanedioic acid]",192
8,"Cc1c(Cl)cccc1OCCCC(=O)N1Cc2ccccc2Oc2c(-c3cnn(Cc4c(F)cc(C(=O)NCCC(=O)O)cc4Cl)c3)cccc21 [Example 784, 3-(3-Chloro-4-((4-(10-(4-(3-chloro-2-methylphenoxy)butanoyl)-10,11-dihydrodibenzo[b,f][1,4]oxazepine-6-yl)-1H-pyrazol-1-yl)methyl)-5-fluorobenzamido)propanoic acid]",200
9,"Cc1cccc(OCCCC(=O)N2C[C@@H]3C[C@@H]3c3c(-c4cnn(Cc5cccc(C(=O)NCC(=O)O)c5)c4)cccc32)c1C [Example 878, 2-(3-((4-((1aR,7bS)-3-(4-(2,3-Dimethylphenoxy)butanoyl)-1a,2,3,7b-tetrahydro-1H-cyclopropa[c]quinolin-7-yl)-1H-pyrazol-1-yl)methyl)benzamido)acetic acid]",42
10,"Cc1c(Cl)cccc1OCCCC(=O)N1C[C@@H]2C[C@@H]2c2c(-c3cnn(Cc4cccc(N5C(=O)CN(CC(=O)O)C5=O)c4)c3)cccc21 [Example 350, 2-(3-(3-((4-((1aR,7bS)-3-(4-(3-Chloro-2-methylphenoxy)butanoyl)-1a,2,3,7b-tetrahydro-1H-cyclopropa[c]quinolin-7-yl)-1H-pyrazol-1-yl)methyl)phenyl)-2,4-dioxoimidazolidin-1-yl) acetic acid]",31
11,"Cc1c(Cl)cccc1OCCCC(=O)N1CCSc2c(-c3cnn(Cc4cccc(C(=O)NCCC[C@H](N)C(=O)OC(C)C)c4)c3)cccc21 [Example 635, (S)-Isopropyl 2-amino-5-(3-((4-(4-(4-(3-chloro-2-methylphenoxy)butanoyl)-3,4-dihydro-2H-benzo[b][1,4]thiazin-8-yl)-1H-pyrazol-1-yl)methyl)benzamido)pentanoate, TFA salt]",177
12,"Cc1cccc(OCCCC(=O)N2CCSc3c(-c4cnn(Cc5c(F)cc(C(=O)NCC(=O)O)cc5Cl)c4)cccc32)c1C [Example 576, 2-(3-Chloro-4-((4-(4-(4-(2,3-dimethylphenoxy)butanoyl)-3,4-dihydro-2H-benzo[b][1,4]thiazin-8-yl)-1H-pyrazol-1-yl)methyl)-5-fluorobenzamido) acetic acid]",48
13,"Cc1cccc(OCCCC(=O)N2CCOc3c(-c4cnn(Cc5cccc(S(=O)(=O)N[C@@H](CCC[N+](C)(C)C)C(=O)O)c5)c4)cccc32)c1C [Example 505, (S)-4-Carboxy-4-(3-((4-(4-(4-(2,3-dimethylphenoxy)butanoyl)-3,4-dihydro-2H-benzo [b][1,4]oxazin-8-yl)-1H-pyrazol-1-yl)methyl)phenyl-sulfonamido)-N,N, N-trimethylbutan-1-aminium, TFA salt]",1730
14,"Cc1cccc(OCCCC(=O)N2C[C@@H]3C[C@@H]3c3c(-c4cnn(Cc5cccc(C(=O)NCCS(=O)(=O)O)c5)c4)cccc32)c1C (single isomer, unassigned) [Example 240]",49
15,Cc1cccc(OCCCC(=O)N2CCCc3c(-c4ccn(Cc5cccc(C(=O)NCCS(=O)(=O)O)c5)c4)cccc32)c1C [Example 168N],4370
16,"Cc1c(Cl)cccc1OCCOC(=O)N1C[C@@H]2C[C@@H]2c2c(-c3cnn(Cc4cc(C(=O)NCS(=O)(=O)O)ccc4Cl)c3)cccc21 [Example 662, (4-Chloro-3-((4-((1aR,7bS)-3-((2-(3-chloro-2-methylphenoxy)ethoxy)carbonyl)-1a,2,3,7b-tetrahydro-1H-cyclopropa[c]quinolin-7-yl)-1H-pyrazol-1-yl)methyl)benzamido) methanesulfonic acid]",36
17,"Cc1cccc(OCCCC(=O)N2CCCc3c(-c4cnn(CCNC(=O)C5(C(=O)O)CC5)c4)cccc32)c1C [Example 110H, 1-(2-(4-(1-(4-(2,3-Dimethylphenoxy)butanoyl)-1,2,3,4-tetrahydroquinolin-5-yl)-1H-pyrazol-1-yl)ethylcarbamoyl) cyclopropanecarboxylic acid]",6560
18,"Cc1c(Cl)cccc1OCCCC(=O)N1CCSc2c(-c3cnn(Cc4c(F)cc(C(=O)O)cc4Cl)c3)cccc21 [Example 358, 3-Chloro-4-((4-(4-(4-(3-chloro-2-methylphenoxy)butanoyl)-3,4-dihydro-2H-benzo[b][1,4]thiazin-8-yl)-1H-pyrazol-1-yl)methyl)-5-fluorobenzoic acid]",43
19,"Cc1cccc(OCCCC(=O)N2CCCc3c(-c4cnn(CCNC(=O)C5(C(=O)NCCS(=O)(=O)O)CC5)c4)cccc32)c1C [Example 110K, 2-(1-(2-(4-(1-(4-(2,3-Dimethylphenoxy)butanoyl)-1,2,3,4-tetrahydroquinolin-5-yl)-1H-pyrazol-1-yl)ethylcarbamoyl)cyclopropanecarboxamido) ethanesulfonic acid]",5000
